Test results from patent US20250171495A1, “MUTLI-TARGETED SERINE PROTEASE INHIBITORS FOR TREATMENT OF CANCER AND VIRAL INFECTION” (Washington University, priority 2023, published 2025).
Like-named read-outs stand apart in the source and are kept apart here. Numbered stars: 1 amine (or outer) side, 2 acyl side, 3 side chain; on linkers, the order of the positions; unused ones are H or OH. Square brackets hold non-standard residues; d marks the D form. Peptide text beside a SMILES is read from it. X1 = N=C(N)NCCC[C@H](N[*:1])C(=O)c1nc2ccc(C(=O)[*:2])cc2s1; Phe(4-NO2) = N[C@@H](Cc1ccc([N+](=O)[O-])cc1)C(=O)O

What was measured:
Type in all cases: biochemical
Thrombin = Thrombin (Homo sapiens, UniProt P00734); experiment: Fluorogenic assay, thrombin
HGFA = biological target: T1, HGFA (Homo sapiens, UniProt Q04756); experiment: Fluorogenic kinetic enzyme inhibitor assay, HGFA; conditions: read-out: HGFA IC50
T1 construct: purchased R&D Systems 1514-SE-010
T1 sequence (Q04756 408-655 limits assumed): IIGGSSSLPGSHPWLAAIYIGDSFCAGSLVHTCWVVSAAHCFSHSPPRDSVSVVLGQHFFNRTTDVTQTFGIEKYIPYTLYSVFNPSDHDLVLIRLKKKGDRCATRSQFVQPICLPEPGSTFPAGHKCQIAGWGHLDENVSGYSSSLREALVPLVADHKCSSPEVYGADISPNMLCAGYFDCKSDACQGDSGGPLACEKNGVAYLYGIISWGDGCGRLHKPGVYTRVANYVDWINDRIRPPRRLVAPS
T1 sequence (Q04756 373-407 partner limits assumed): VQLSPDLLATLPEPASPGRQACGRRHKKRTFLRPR

Factor Xa = biological target: T2, Factor Xa (Homo sapiens, UniProt P00742); experiment: Fluorogenic assay, Factor Xa; conditions: read-out: Factor Xa IC50
T2 construct: TMPRSS2; Matriptase; Hepsin; HGFA; Thrombin; Factor Xa

matriptase = biological target: T3, matriptase (Homo sapiens, UniProt Q9Y5Y6); experiment: Fluorogenic kinetic enzyme inhibitor assay, matriptase
T3 construct: purchased R&D Systems 3946-SEB-010
T3 sequence (Q9Y5Y6 615-855 limits assumed): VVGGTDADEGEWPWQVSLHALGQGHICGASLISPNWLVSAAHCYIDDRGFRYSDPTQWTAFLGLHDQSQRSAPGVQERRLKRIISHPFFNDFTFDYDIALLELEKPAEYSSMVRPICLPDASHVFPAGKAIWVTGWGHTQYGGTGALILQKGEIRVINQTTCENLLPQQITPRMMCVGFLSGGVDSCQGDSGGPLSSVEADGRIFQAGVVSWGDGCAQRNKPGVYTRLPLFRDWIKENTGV

hepsin = biological target: T4, hepsin (Homo sapiens, UniProt P05981); experiment: Fluorogenic kinetic enzyme inhibitor assay, hepsin; conditions: read-out: Hepsin IC50
T4 construct: purchased R&D Systems 4776-SE-010

TMPRSS2 = TMPRSS2 (Homo sapiens, UniProt O15393); experiment: Fluorogenic kinetic enzyme inhibitor assay, TMPRSS2; parameters: purchased Cusabio Technology CSB-YP023924HU
[1] = 30 min incubation, Boc-QLR-AMC at Km

T4 sequence (P05981 163-417 limits assumed): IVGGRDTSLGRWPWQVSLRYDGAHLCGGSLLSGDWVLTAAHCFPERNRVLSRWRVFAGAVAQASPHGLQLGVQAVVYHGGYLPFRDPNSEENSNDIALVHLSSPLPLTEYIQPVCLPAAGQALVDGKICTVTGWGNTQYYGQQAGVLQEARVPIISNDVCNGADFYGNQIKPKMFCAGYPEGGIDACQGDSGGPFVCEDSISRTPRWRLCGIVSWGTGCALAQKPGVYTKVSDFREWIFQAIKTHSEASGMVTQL
T4 sequence (P05981 1-162 partner limits assumed): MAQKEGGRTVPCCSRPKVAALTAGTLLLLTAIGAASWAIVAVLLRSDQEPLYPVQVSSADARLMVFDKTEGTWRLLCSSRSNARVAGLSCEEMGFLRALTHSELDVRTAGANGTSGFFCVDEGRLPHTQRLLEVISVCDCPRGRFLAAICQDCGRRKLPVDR
T2 sequence (P00742 235-488 limits assumed): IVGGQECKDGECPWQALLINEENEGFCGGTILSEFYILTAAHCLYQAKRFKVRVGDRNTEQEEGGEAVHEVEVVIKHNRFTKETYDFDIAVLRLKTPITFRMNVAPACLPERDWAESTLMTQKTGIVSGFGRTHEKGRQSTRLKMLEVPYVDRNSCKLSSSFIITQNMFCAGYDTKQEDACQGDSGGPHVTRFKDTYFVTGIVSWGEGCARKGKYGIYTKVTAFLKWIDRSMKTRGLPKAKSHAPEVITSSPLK
T2 sequence (P00742 41-179 partner limits assumed): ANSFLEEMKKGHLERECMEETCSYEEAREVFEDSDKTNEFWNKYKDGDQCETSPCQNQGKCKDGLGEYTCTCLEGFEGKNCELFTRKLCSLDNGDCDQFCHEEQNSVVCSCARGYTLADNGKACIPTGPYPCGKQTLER
TMPRSS2, sequence (O15393 106-492 limits assumed): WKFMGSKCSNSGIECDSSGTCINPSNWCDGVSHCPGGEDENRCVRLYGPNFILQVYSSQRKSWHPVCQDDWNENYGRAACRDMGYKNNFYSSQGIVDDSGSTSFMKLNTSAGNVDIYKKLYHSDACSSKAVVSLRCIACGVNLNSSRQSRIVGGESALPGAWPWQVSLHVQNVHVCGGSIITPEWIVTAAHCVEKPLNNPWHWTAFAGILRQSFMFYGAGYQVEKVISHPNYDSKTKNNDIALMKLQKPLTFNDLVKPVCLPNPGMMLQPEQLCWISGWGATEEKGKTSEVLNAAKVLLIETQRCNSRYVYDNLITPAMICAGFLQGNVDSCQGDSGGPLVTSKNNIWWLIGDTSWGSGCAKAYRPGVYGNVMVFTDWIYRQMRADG

Row | SMILES | IC50 (Thrombin) [µM] | IC50 (HGFA) [nM] | IC50 (Factor Xa) [nM] | IC50 (matriptase) [nM] | IC50 (hepsin) [nM] | IC50 (matriptase; read-out: Matriptase IC50) [nM] | IC50 (TMPRSS2; read-out: TMPRSS2 IC50) [nM] | IC50 (HGFA; [1]) [nM] | IC50 (TMPRSS2; 30 min incubation, Boc-QAR-AMC at Km, read-out: TMPRSS2 IC50) [nM] | IC50 (TMPRSS2) [nM]
1 | CC(=O)N[C@@H](CO)C(=O)N[C@H](Cc1c[nH]c2ccccc12)C(=O)N[C@@H](CC(C)C)C(=O)N[C@@H](CCCNC(=N)N)C(=O)c1nc2ccc(C(=O)N[C@H](C(N)=O)C(C)C)cc2s1 [JH1114, N-[(S)-1-carbamoyl-2-methylpropyl]-2-[(S)-2-[(S)-2-[(R)-2-[(S)-2-acetylamino-3-hydroxypropionylamino]-3-(3-indolyl)propionylamino]-4-methylvalerylamino]-5-guanidinovaleryl]-1,3-benzothiazole-6-carboxamide] (Ac-S[dW]L[X1]V-NH2) | 3.88 | 57.4 | 1280 | 231 | 1.8 |  |  |  |  | 
2 | CC(=O)N[C@H](Cc1c[nH]c2ccccc12)C(=O)N[C@@H](CCCCNC(=N)N)C(=O)N[C@@H](CCC(C)C)C(=O)N[C@@H](CCCNC(=N)N)C(=O)c1nc2ccccc2s1 [JH1140-2, N-[(S)-1-[(1,3-benzothiazol-2-yl)carbonyl]-4-guanidinobutyl](S)-2-[(S)-1-[(R)-2-acetylamino-3-(3-indolyl)propionylamino]-5-guanidinopentylcarbonylamino]-5-methylhexanamide] | > 20 | 4.84 | 9.12 | 0.46 | 0.45 |  |  |  |  | 
3 | CC(=O)N[C@@H](CCCCNC(=N)N)C(=O)N[C@@H](CCC(C)C)C(=O)N[C@@H](CCCNC(=N)N)C(=O)c1nc2ccccc2s1 [JH1141-2, N-[(S)-1-[(1,3-benzothiazol-2-yl)carbonyl]-4-guanidinobutyl](S)-2-[(S)-1-acetylamino-5-guanidinopentylcarbonylamino]-5-methylhexanamide] | > 20 | 10.5 | 121 |  | 1.15 | 1.06 |  |  |  | 
4 | CC(=O)N[C@@H](Cc1cncn1COCc1ccccc1)C(=O)N[C@@H](CCCCNC(=N)N)C(=O)N[C@@H](CCC(C)C)C(=O)N[C@@H](CCCNC(=N)N)C(=O)c1nc2ccccc2s1 [JH1143-2, N-[(S)-1-[(1,3-benzothiazol-2-yl)carbonyl]-4-guanidinobutyl](S)-2-[(S)-1-[(S)-2-acetylamino-3-{1-[(benzyloxy)methyl]-5-imidazolyl}propionylamino]-5-guanidinopentylcarbonylamino]-5-methylhexanamide] | 1.63 | 43.9 | 177 | 0.862 | 0.728 |  |  |  |  | 
5 | CC(=O)N[C@@H](CO)C(=O)NCc1cccc(CC(=O)N[C@@H](CC(C)C)C(=O)N[C@@H](CCCNC(=N)N)C(=O)c2nc3ccccc3s2)c1 [MM1132-2, N-[(S)-1-[(1,3-benzothiazol-2-yl)carbonyl]-4-guanidinobutyl](S)-2-{[(m-{[(S)-2-acetylamino-3-hydroxypropionylamino]methyl}phenyl)methyl]carbonylamino}-4-methylvaleramide] | 9.44 | 209 | 1890 |  | 0.326 | 31 |  |  |  | 
6 | CC(=O)N[C@@H](CO)C(=O)N[C@@H](Cc1ccc([N+](=O)[O-])cc1)C(=O)N[C@@H](CC(C)C)C(=O)N[C@@H](CCCNC(=N)N)C(=O)c1nc2ccc(C(=O)N[C@H](C(N)=O)C(C)C)cc2s1 [MM1180, N-[(S)-1-carbamoyl-2-methylpropyl]-2-[(S)-2-[(S)-2-[(S)-2-[(S)-2-acetylamino-3-hydroxypropionylamino]-3-(p-nitrophenyl)propionylamino]-4-methylvalerylamino]-5-guanidinovaleryl]-1,3-benzothiazole-6-carboxamide] (Ac-S[Phe(4-NO2)]L[X1]V-NH2) | 0.134 | 231 | 64.2 | 133 | 3.1 |  |  |  |  | 
7 | CCC(C)[C@H](NC(C)=O)C(=O)N[C@@H](CCC(N)=O)C(=O)N[C@@H](CO)C(=O)N[C@@H](CCCNC(=N)N)C(=O)c1nc2ccccc2s1 (stereo partly drawn) [MM3177, N-[(S)-2-hydroxy-1-[N-(S)-1-[(1,3-benzothiazol-2-yl)carbonyl]-4-guanidinobutylcarbamoyl]ethyl](S)-2-[(2S)-2-acetylamino-3-methylvalerylamino]glutaramide] | > 20 | 19900 | 1730 |  | 2.42 |  | 4.55 |  |  | 
8 | CCC(C)[C@H](NC(C)=O)C(=O)N[C@@H](CCC(N)=O)C(=O)N[C@H](C(=O)N[C@H](CCCNC(=N)N)C(=O)c1nc2ccccc2s1)C(C)C (stereo partly drawn) [MM3180-1, N-[(S)-2-methyl-1-[N-(R)-1-[(1,3-benzothiazol-2-yl)carbonyl]-4-guanidinobutylcarbamoyl]propyl](S)-2-[(2S)-2-acetylamino-3-methylvalerylamino]glutaramide] | > 20 | 14600 | > 20000 |  |  |  | 2.89 |  |  | 
9 | CCC(C)[C@H](NC(C)=O)C(=O)N[C@@H](CCC(N)=O)C(=O)N[C@H](C(=O)N[C@@H](CCCNC(=N)N)C(=O)c1nc2ccccc2s1)C(C)O (stereo partly drawn) [MM3186, N-[(1S)-2-hydroxy-1-[N-(S)-1-[(1,3-benzothiazol-2-yl)carbonyl]-4-guanidinobutylcarbamoyl]propyl](S)-2-[(2S)-2-acetylamino-3-methylvalerylamino]glutaramide] | > 20 | 18400 | > 20000 | 15.5 |  |  | 0.173 |  |  | 
10 | CC(=O)N[C@H](Cc1c[nH]c2ccccc12)C(=O)N[C@@H](Cc1ccccc1)C(=O)N[C@@H](CCCNC(=N)N)C(=O)c1nc2ccc(C(=O)O)cc2s1 [PK-1-93, 2-[(S)-2-[(S)-2-[(R)-2-acetylamino-3-(3-indolyl)propionylamino]-3-phenylpropionylamino]-5-guanidinovaleryl]-1,3-benzothiazole-6-carboxylic acid] | 19.9 | 95.5 | 30.5 |  | 2 | 136 |  |  |  | 
11 | CC(=O)N[C@H]1CC(=O)NCCCC[C@@H](C(=O)N[C@@H](CCCNC(=N)N)C(=O)c2nc3ccccc3s2)NC(=O)[C@H](CCC(N)=O)NC1=O [VD3152, N-[(S)-1-[(1,3-benzothiazol-2-yl)carbonyl]-4-guanidinobutyl]-(3S,6S,14S)-6-acetylamino-3-(2-carbamoylethyl)-2,5,8-trioxo-1,4,9-triaza-14-cyclotetradecane-carboxamide] | > 20 |  |  |  |  | 7.7 | 24.3 | 16100 |  | 
12 | CC(=O)N[C@H]1Cc2cn(nn2)CCCC[C@H](C(=O)N[C@@H](CCCNC(=N)N)C(=O)c2nc3ccccc3s2)NC(=O)[C@H](CC(C)C)NC1=O [VD4090, N-[(S)-1-[(1,3-benzothiazol-2-yl)carbonyl]-4-guanidinobutyl]-(6R,9S,12S)-12-acetylamino-9-isobutyl-8,11-dioxo-1,7,10,15,16-pentaazabicyclo[12.2.1]heptadeca-14(17),15-diene-6-carboxamide] | > 20 |  | 4290 |  |  |  |  | 3080 | 4.19 | 
13 | CC(=O)N[C@H]1Cc2ccc(cc2)OCCCC[C@@H](C(=O)N[C@@H](CCCNC(=N)N)C(=O)c2nc3ccccc3s2)NC(=O)[C@H](Cc2ccccc2)NC1=O [VD4111B, N-[(S)-1-[(1,3-benzothiazol-2-yl)carbonyl]-4-guanidinobutyl]-(7S,10S,13S)-13-acetylamino-10-benzyl-9,12-dioxo-2-oxa-8,11-diazabicyclo[13.2.2]nonadeca-1(17),15,18-triene-7-carboxamide] | > 20 |  | 8700 |  |  |  | 16.4 |  |  | 
14 | CC(=O)N[C@@H](CCCCN)C(=O)N[C@@H](CCC(N)=O)C(=O)N[C@@H](CC(C)C)C(=O)N[C@@H](CCCNC(=N)N)C(=O)c1nc2ccccc2s1 [ZFH7006, N-[(S)-3-methyl-1-[N-(S)-1-[(1,3-benzothiazol-2-yl)carbonyl]-4-guanidinobutylcarbamoyl]butyl](S)-2-[(S)-1-acetylamino-5-aminopentylcarbonyl-amino]glutaramide] |  |  | 258 |  | 0.17 | 1.1 |  | 60 |  | 18.1
15 | CC(=O)N[C@@H](CO)C(=O)N[C@@H](CCCCN)C(=O)N[C@@H](CC(C)C)C(=O)N[C@@H](CCCNC(=N)N)C(=O)c1nc2ccccc2s1 [ZFH7053, N-[(S)-3-methyl-1-[N-(S)-1-[(1,3-benzothiazol-2-yl)carbonyl]-4-guanidinobutylcarbamoyl]butyl](S)-2-[(S)-2-acetylamino-3-hydroxypropionylamino]-6-aminohexanamide] |  |  | 3800 |  | 0.32 | 6.1 |  | 66 |  | 39.2
